Measurements from ChEMBL document CHEMBL5344466, “Pyrrolidinone Derivatives as NIK Inhibitors for Treating Inflammatory and Autoimmune Diseases” (ACS Med Chem Lett, 2024).

Target: Mitogen-activated protein kinase kinase kinase 14 (Homo sapiens, UniProt Q99558)
Experiment: Inhibition of auto-phosphorylation of human GST-tagged NIK/MAP3K14 measured for 2 hrs by AlphaScreen assay

Sequence of Mitogen-activated protein kinase kinase kinase 14 (Q99558 whole entry): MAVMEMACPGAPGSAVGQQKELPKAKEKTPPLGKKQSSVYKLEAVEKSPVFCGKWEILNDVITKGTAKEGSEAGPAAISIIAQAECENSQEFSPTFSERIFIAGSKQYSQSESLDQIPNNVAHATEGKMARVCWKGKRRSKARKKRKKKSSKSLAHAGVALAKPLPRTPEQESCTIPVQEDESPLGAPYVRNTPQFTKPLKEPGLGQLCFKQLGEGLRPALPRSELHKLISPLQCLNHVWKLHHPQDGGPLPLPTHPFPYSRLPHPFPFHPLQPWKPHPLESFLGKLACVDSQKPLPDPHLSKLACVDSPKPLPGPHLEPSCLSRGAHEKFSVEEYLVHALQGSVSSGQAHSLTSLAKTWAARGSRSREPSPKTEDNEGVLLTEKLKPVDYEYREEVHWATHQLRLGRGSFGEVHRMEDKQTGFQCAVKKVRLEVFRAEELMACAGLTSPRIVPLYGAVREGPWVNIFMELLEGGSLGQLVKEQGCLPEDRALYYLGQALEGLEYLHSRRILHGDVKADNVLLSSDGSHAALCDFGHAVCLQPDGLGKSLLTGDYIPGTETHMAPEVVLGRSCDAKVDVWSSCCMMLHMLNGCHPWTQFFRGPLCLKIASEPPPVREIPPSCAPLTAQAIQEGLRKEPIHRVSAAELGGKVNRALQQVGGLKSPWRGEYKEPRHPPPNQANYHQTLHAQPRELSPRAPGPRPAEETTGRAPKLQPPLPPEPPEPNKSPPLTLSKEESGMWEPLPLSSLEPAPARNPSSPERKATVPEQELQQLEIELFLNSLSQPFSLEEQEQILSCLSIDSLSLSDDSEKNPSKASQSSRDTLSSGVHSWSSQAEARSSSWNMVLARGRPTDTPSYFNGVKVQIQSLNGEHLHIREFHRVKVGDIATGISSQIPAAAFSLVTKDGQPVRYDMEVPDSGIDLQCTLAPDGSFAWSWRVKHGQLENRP

Structure (SMILES): CN1CCC(O)(c2cn(-c3cccc(-c4nc(C(N)=O)c5ccccc5n4)c3)cn2)C1=O (stereo unspecified)
- IC50: < 100 nM

Structure (SMILES): CN1CC[C@@](O)(c2cc(-c3cccc(-c4cc(C5CC5)nc(C(N)=O)n4)c3)no2)C1=O
- IC50: < 100 nM

Structure (SMILES): CN1CC[C@@](O)(c2cc(-c3cccc(-c4nc(C(N)=O)c(Br)s4)c3)no2)C1=O
- IC50: < 100 nM

Structure (SMILES): CN1CC[C@@](O)(c2cc(-c3cccc(-c4ccc(C(N)=O)o4)c3)no2)C1=O
- IC50: < 100 nM

Structure (SMILES): CN1CC[C@@](O)(c2cc(-c3cccc(-c4cc(N5CC(F)(F)C5)cc(C(N)=O)n4)c3)no2)C1=O
- IC50: < 100 nM

Structure (SMILES): [2H]c1nc(N)c2nc(-c3cccc(-c4cnc([C@@]5(O)CCN(C)C5=O)s4)c3)ccc2n1
- IC50: < 100 nM
